These results are taken from US20110214194A1 (priority 2005, published 2011).

Experiment [1] relates to peritoneal macrophages. It is filed as cell-based, mouse.
The subject of another experiment is type I IFN. The class given is cell-based, mouse. As to conditions: Heedless macrophages, 100 ng/ml, 4 hours.
Experiment [2] relates to peritoneal macrophages. As to conditions: Trif mutant macrophages; cited from earlier work.
The test system of a further experiment is IRF-3. As to the kind of experiment: Immunoblot analysis of IRF-3 activation in macrophages. It is filed as cell-based, mouse. As to conditions: heedless mutant cells, lipid A 100 ng/ml. In general terms: Immunoblotting shows a protein as a band on a membrane.
Another experiment deals with NF-κB, ERK1 and ERK2. As to the kind of experiment: Immunoblot analysis of IκB and ERK (p42/44) phosphorylation in macrophages. The class given is cell-based, mouse. As to conditions: Heedless macrophages, lipid A 100 ng/ml.

Take Pam3CSK4: the “TNF production in response to the inducer: effect of the Heedless mutation” value (“TNF production in response” below) with peritoneal macrophages [1] was “normal”. As to MALP-2, the “TNF production in response” value in the experiment on peritoneal macrophages [1] is “partial impairment of the response”. On to Pam2CSK4, for which the “TNF production in response” value in the experiment on peritoneal macrophages [1] is recorded as “partial impairment of the response”. With lipoteichoic acid, in the experiment on peritoneal macrophages [1], the “TNF production in response” value is given as “partial impairment of the response”.

In the case of poly IC, the “TNF production in response” value in the experiment on peritoneal macrophages [1] was “normal”. Turning to lipid A, the “signaling via the MyD88-independent pathway (type I IFN production): effect of the Heedless mutation” value in the experiment with type I IFN was “prevented”. Further, the “lipid A-induced TNF production” value with peritoneal macrophages [2] was “rather severe impairment”. Further, the “formation of the IRF-3 phosphodimer” value with IRF-3 was “not detected”. Moreover, the “activation of NF-κB and phosphorylation of ERK1 and ERK2” value in the experiment with NF-κB, ERK1 and ERK2 is “occurred normally”.
